Measurements from patent US9975921B2, “Crystal forms of anamorelin” (Helsinn Healthcare SA, priority 2004, dated 2018).
Each block holds one compound with its values, some of them ahead of it.

Columns and labels:
Assay type in all cases: physicochemical
[1] = Hygroscopicity study: Dynamic Vapor Sorption analysis (DVS)
Procedure: (§1) The hygroscopicity of (3R)-1-(2-methylalanyl-D-tryptophyl)-3-(phenylmethyl)-3-piperidinecarboxylic acid 1,2,2-trimethylhydrazide form C produced by the method disclosed in Example 4 (monohydrate) was evaluated using Dynamic Vapor Sorption analysis (DVS) and Thermogravimetric analysis (TGA). Dynamic Vapor Sorption Analysis (DVS)
The samples were analyzed using a Hiden IGAsorp vapor sorption analyzer. Each sample was placed in a sample pan and exposed to drying at 25° C. in a dry nitrogen stream for two hours. This assured that the samples being analyzed were at a constant weight prior to the start of the analysis. The samples were then analyzed at 25.0° C. The adsorption isotherm was conducted between: 10-90% RH with a step size of 10%. The desorption isotherm was conducted between 85-0% RH with a step size 10%. After the isotherms were complete, each of the samples were heated to 125° C. until the weight loss curve reached an asymptote or for 4 hours.

[2] = Hygroscopicity study: Thermogravimetric analysis (TGA); settings: before DVS
Procedure: as §1
The samples were analyzed using a Mettler 851e thermogravimetric analyzer. Samples were weighed into a crucible. The samples were heated from 30° C. to 300.0° C. ramped at 10.00° C./min with an air purge.

[3] = 12 month stability study: physical description (TM-106)
Procedure: (§2) Crystalline (3R)-1-(2-methylalanyl-D-tryptophyl)-3-(phenylmethyl)-3-piperidinecarboxylic acid 1,2,2-trimnethylhydrazide was placed in double plastic bags, closed under a nitrogen blanket, and placed inside a small fiberboard container, the physical appearance, water content, purity and crystallinity were tested every three months for a period of 12 months under a variety of conditions.

[4] = 12 month stability study: water content by Karl Fischer
Procedure: as §2
(§3) The purity and water content of (3R)-1-(2-methylalanyl-D-tryptophyl)-3-(phenylmethyl)-3-piperidinecarboxylic acid 1,2,2-trimethylhydrazide was analyzed using HPLC and KF respectively before, during, and after the 12 month stability study.

[5] = 12 month stability study: HPLC weight % (TM-808)
Procedure: as §2, §3

[6] = 12 month stability study: HPLC area % (TM-808)
Procedure: as §2, §3

[7] = 12 month stability study: DSC (USP <891>)
Procedure: as §2

[8] = 12 month stability study: crystallinity using optical microscopy (USP <695>)
Procedure: as §2

[9] = 12 month stability study: water content by Karl Fischer; settings: 1 month

relative humidity above which the dihydrate was formed ([1]; DVS): > 35% | water contained after steady adsorption ([1]; adsorption isotherm, 25.0° C., at 35% RH): 6 % by weight | relative humidity down to which the dihydrate form was observed ([1]; desorption isotherm): 30 % RH | bound water initially contained [2]: 2.5 % by weight
SMILES: CN(C)N(C)C(=O)[C@@]1(Cc2ccccc2)CCCN(C(=O)[C@@H](Cc2c[nH]c3ccccc23)NC(=O)C(C)(C)N)C1 [Form C monohydrate, (3R)-1-(2-methylalanyl-D-tryptophyl)-3-(phenylmethyl)-3-piperidinecarboxylic acid 1,2,2-trimethylhydrazide]
additional adsorption ([1]; adsorption isotherm, up to 90% RH): No other significant additional adsorption

Physical Description ([3]; 5° C., 1 month): Off-white | Physical Description ([3]; 5° C., 3 months): Off-white | Physical Description ([3]; 5° C., 6 months): Off-white | Physical Description ([3]; 5° C., 9 months): White | Physical Description ([3]; 5° C., 12 months): Off-white | Physical Description ([3]; 25° C. 60% RH, 1 month): Off-white | Physical Description ([3]; 25° C. 60% RH, 3 months): Off-white | Physical Description ([3]; 25° C. 60% RH, 6 months): Off-white | Physical Description ([3]; 25° C. 60% RH, 9 months): Off-white | Physical Description ([3]; 25° C. 60% RH, 12 months): Off-white | Physical Description ([3]; 40° C. 60% RH, 1 month): Off-white | Physical Description ([3]; 40° C. 60% RH, 3 months): Off-white | Physical Description ([3]; 40° C. 60% RH, 6 months): Off-white | Physical Description ([3]; Initial): Off-white | Water content by Karl Fisher ([4]; 5° C., 3 months): 6.0% | Water content by Karl Fisher ([4]; 5° C., 6 months): 5.8% | Water content by Karl Fisher ([4]; 5° C., 9 months): 5.6% | Water content by Karl Fisher ([4]; 5° C., 12 months): 6.1% | Water content by Karl Fisher ([4]; 25° C. 60% RH, 3 months): 6.0% | Water content by Karl Fisher ([4]; 25° C. 60% RH, 6 months): 5.9% | Water content by Karl Fisher ([4]; 25° C. 60% RH, 9 months): 5.7% | Water content by Karl Fisher ([4]; 25° C. 60% RH, 12 months): 5.8% | Water content by Karl Fisher ([4]; 40° C. 75% RH, 3 months): 6.1% | Water content by Karl Fisher ([4]; 40° C. 75% RH, 6 months): 5.9% | water content (Karl Fischer Analysis) ([4]; after 12 months): approximately 6% | HPLC Weight % ([5]; 5° C., 1 month): 92.0% | HPLC Weight % ([5]; 5° C., 3 months): 93.2% | HPLC Weight % ([5]; 5° C., 6 months): 93.9% | HPLC Weight % ([5]; 5° C., 9 months): 94.5% | HPLC Weight % ([5]; 5° C., 12 months): 94.3% | HPLC Weight % ([5]; 25° C. 60% RH, 1 month): 92.1% | HPLC Weight % ([5]; 25° C. 60% RH, 3 months): 93.2% | HPLC Weight % ([5]; 25° C. 60% RH, 6 months): 94.2% | HPLC Weight % ([5]; 25° C. 60% RH, 9 months): 94.6% | HPLC Weight % ([5]; 25° C. 60% RH, 12 months): 94.2% | HPLC Weight % ([5]; 40° C. 75% RH, 1 month): 91.8% | HPLC Weight % ([5]; 40° C. 75% RH, 3 months): 93.0% | HPLC Weight % ([5]; 40° C. 75% RH, 6 months): 94.1% | HPLC Weight % ([5]; Initial): 99.8% | HPLC Area % ([6]; 5° C., 1 month): 99.7% | HPLC Area % ([6]; 5° C., 3 months): 99.7% | HPLC Area % ([6]; 5° C., 6 months): 99.7% | HPLC Area % ([6]; 5° C., 9 months): 99.8% | HPLC Area % ([6]; 5° C., 12 months): 99.7% | HPLC Area % ([6]; 25° C. 60% RH, 1 month): 99.7% | HPLC Area % ([6]; 25° C. 60% RH, 3 months): 99.7% | HPLC Area % ([6]; 25° C. 60% RH, 6 months): 99.7% | HPLC Area % ([6]; 25° C. 60% RH, 9 months): 99.8% | HPLC Area % ([6]; 25° C. 60% RH, 12 months): 99.7% | HPLC Area % ([6]; 40° C. 75% RH, 1 month): 99.7% | HPLC Area % ([6]; 40° C. 75% RH, 3 months): 99.7% | HPLC Area % ([6]; 40° C. 75% RH, 6 months): 99.7% | HPLC Area % ([6]; Initial): 99.8% | purity ([6]; after 12 months): relatively unchanged | DSC Onset ([7]; 5° C., 3 months): 112.1 °C | DSC Peak ([7]; 5° C., 3 months): 117.1 °C | DSC Onset ([7]; 5° C., 6 months): 112.3 °C | DSC Peak ([7]; 5° C., 6 months): 116.9 °C | DSC Onset ([7]; 25° C. 60% RH, 3 months): 112.6 °C | DSC Peak ([7]; 25° C. 60% RH, 3 months): 117.7 °C | DSC Onset ([7]; 25° C. 60% RH, 6 months): 112.5 °C | DSC Peak ([7]; 25° C. 60% RH, 6 months): 117 °C | DSC Onset ([7]; 40° C. 75% RH, 3 months): 112.2 °C | DSC Peak ([7]; 40° C. 75% RH, 3 months): 117.5 °C | DSC Onset ([7]; 40° C. 75% RH, 6 months): 125.5 °C | DSC Peak ([7]; 40° C. 75% RH, 6 months): 117.8 °C | DSC Onset ([7]; Initial): 108.2 °C | DSC Peak ([7]; Initial): 112.7 °C | Crystallinity using Optical Microscopy ([8]; 5° C., 1 month): Crystal- | Crystallinity using Optical Microscopy ([8]; 5° C., 3 months): Crystal- | Crystallinity using Optical Microscopy ([8]; 5° C., 6 months): Crystal- | Crystallinity using Optical Microscopy ([8]; 5° C., 9 months): Crystal- | Crystallinity using Optical Microscopy ([8]; 5° C., 12 months): Crystal- | Crystallinity using Optical Microscopy ([8]; 25° C. 60% RH, 1 month): Crystal- | Crystallinity using Optical Microscopy ([8]; 25° C. 60% RH, 3 months): Crystal- | Crystallinity using Optical Microscopy ([8]; 25° C. 60% RH, 6 months): Crystal- | Crystallinity using Optical Microscopy ([8]; 25° C. 60% RH, 9 months): Crystal- | Crystallinity using Optical Microscopy ([8]; 25° C. 60% RH, 12 months): Crystal- | Crystallinity using Optical Microscopy ([8]; 40° C. 75% RH, 1 month): Crystal- | Crystallinity using Optical Microscopy ([8]; 40° C. 75% RH, 3 months): Crystal- | Crystallinity using Optical Microscopy ([8]; 40° C. 75% RH, 6 months): Crystal- | Crystallinity using Optical Microscopy ([8]; Initial): Crystal- | Water content by Karl Fisher ([9]; 5° C.): 5.3% | Water content by Karl Fisher ([9]; 25° C. 60% RH): 5.8% | Water content by Karl Fisher ([9]; 40° C. 75% RH): 6.1%
SMILES: CN(C)N(C)C(=O)[C@@]1(Cc2ccccc2)CCCN(C(=O)[C@@H](Cc2c[nH]c3ccccc23)NC(=O)C(C)(C)N)C1 [crystalline anamorelin, (3R)-1-(2-methylalanyl-D-tryptophyl)-3-(phenylmethyl)-3-piperidinecarboxylic acid 1,2,2-trimethylhydrazide]
